Data: patent publication EP0039085A1, “Process for increasing the solubility of aromatic systems” (Langhals, Heinz, Dr., priority 1980, dated 1981)

Assays:
[1] = Solubility in organic solvents: effect of tert-butyl substitution; assay type: physicochemical; conditions: for Löslichkeitssteigerung um einen Faktor: relative to unsubstituted Rubicen (I)
Excerpt: Der Einfluß der Substitution mit tert.-Butylgruppen wurde an folgenden Systemen untersucht.

[2] = Absolute fluorescence quantum yield; assay type: physicochemical

With Tetra-tert.-butylrubicen the “erhöhte die Löslichkeit um einen Faktor” value ([1]; solvent not restated (preceding sentence: Äthanol und n-Hexan bei Zimmertemperatur), relative to Rubicen) was “ca. 10”.

For O=C1c2ccc3c4ccc5c6c(ccc(c7ccc(c2c37)C(=O)N1c1ccccc1)c64)C(=O)N(c1ccccc1)C5=O [III, reference compound], the Löslichkeit ([1]; in organischen Lösungsmitteln) was “sehr geringe”.

With CC(C)(C)c1ccc(N2C(=O)c3ccc4c5ccc6c7c(ccc(c8ccc(c3c48)C2=O)c75)C(=O)N(c2ccc(C(C)(C)C)cc2)C6=O)cc1 [Beispiel 4, N,N'-Di-(4-tert.-butylphenyl)-perylen-3,4,9,10-tetra-carbonsäurediimid] the “Fluoreszenzquantenausbeute (absolut) η” value ([2]; Dimethylformamid (DMF)) was 0,88.

With CC(C)(C)c1ccccc1N1C(=O)c2ccc3c4ccc5c6c(ccc(c7ccc(c2c37)C1=O)c64)C(=O)N(c1ccccc1C(C)(C)C)C5=O [Beispiel 3, N,N'-Di-(2-tert.-butyl)-perylen-3,4,9,10-tetracarbonsäure-diimid] the “Fluoreszenzquantenausbeute (absolut) η” value ([2]; Chloroform) was 1,0 and the “Fluoreszenzquantenausbeute (absolut) η” value ([2]; Dimethylformamid (DMF)) was 0,94.

In the case of Di-tert.-butylrubicen, the “Löslichkeitssteigerung um einen Faktor” value ([1]; in n-Hexan bei Zimmertemperatur) is reported as “ca. 100” and the “Löslichkeitssteigerung um einen Faktor” value ([1]; in Äthanol bei Zimmertemperatur) is reported as “ca. 100”.
